Source: the NIST ThermoML archive (doi:10.1016/j.jct.2012.10.008)

Experiment: xn = mol fraction of the nth substance listed
Conditions: 101 kPa, Liquid; for viscosity: Falling or rolling sphere viscometry; for mass density: Vibrating tube method

CCCC[NH3+].O=[N+]([O-])[O-] [n-butylammonium nitrate] + CCCCO
Conditions	mass density, 293.15 K [kg/m3]	mass density, 298.15 K [kg/m3]	mass density, 303.15 K [kg/m3]	mass density, 308.15 K [kg/m3]	mass density, 313.15 K [kg/m3]	viscosity, 293.15 K [mPa·s]	viscosity, 298.15 K [mPa·s]	viscosity, 303.15 K [mPa·s]	viscosity, 308.15 K [mPa·s]	viscosity, 313.15 K [mPa·s]
x1 = 0.1004	851.35	847.7	844.02	840.32	836.6	5.242	4.554	3.985	3.506	3.099
x1 = 0.1999	888.16	884.59	881	877.4	873.79	–	6.852	5.961	5.217	4.592
x1 = 0.2993	922.05	918.6	915.12	911.54	908.03	11.36	9.747	8.447	7.302	6.344
x1 = 0.3992	953.58	950.14	946.7	943.25	939.81	17.51	14.95	12.76	11.03	9.601
x1 = 0.4955	982.07	978.69	975.31	971.93	968.56	24.22	20.34	17.34	14.86	12.88
x1 = 0.6508	1024.4	1021.11	1017.81	1014.53	1011.26	38.67	31.95	26.79	22.66	19.51
x1 = 0.801	1061.11	1057.88	1054.67	1051.47	1048.29	60.58	49.4	40.82	34.2	28.96
x1 = 0.8998	1083.71	1080.52	1077.34	1074.19	1071.05	83.12	68.14	56.15	46.69	39.11
x1 = 1	1104.68	1101.52	1098.38	1095.26	1092.17	111.35	89.95	73.04	60.25	50.12

CCCC[NH3+].O=[N+]([O-])[O-] [n-butylammonium nitrate] + CCCO
Conditions	mass density, 293.15 K [kg/m3]	mass density, 298.15 K [kg/m3]	mass density, 303.15 K [kg/m3]	mass density, 308.15 K [kg/m3]	mass density, 313.15 K [kg/m3]	viscosity, 293.15 K [mPa·s]	viscosity, 298.15 K [mPa·s]	viscosity, 303.15 K [mPa·s]	viscosity, 308.15 K [mPa·s]	viscosity, 313.15 K [mPa·s]
x1 = 0.0999	855.12	851.36	847.56	843.75	839.91	4.091	3.599	3.182	2.824	2.516
x1 = 0.2004	898.27	894.64	890.99	887.32	883.65	6.691	5.828	5.108	4.503	3.989
x1 = 0.2994	935.27	931.74	928.19	924.64	921.09	10.45	8.998	7.81	6.822	6.009
x1 = 0.4007	968.52	965.08	961.63	958.18	954.74	16.54	14.11	12.11	10.49	9.207
x1 = 0.4995	997.32	993.96	990.59	987.23	983.88	22.52	19.08	16.29	14.05	12.19
x1 = 0.6495	1035.44	1032.16	1028.88	1025.62	1022.36	38.05	31.62	26.59	22.59	19.39
x1 = 0.7978	1067.64	1064.42	1061.21	1058.02	1054.86	61.01	49.83	41.2	34.54	29.21
x1 = 0.9008	1087.69	1084.51	1081.34	1078.19	1075.07	83.36	67.14	55.16	46.11	40.09
x1 = 1	1104.68	1101.52	1098.38	1095.26	1092.17	111.35	89.95	73.04	60.25	50.12

CCCC[NH3+].O=[N+]([O-])[O-] [n-butylammonium nitrate] + CCO
Conditions	mass density, 293.15 K [kg/m3]	mass density, 298.15 K [kg/m3]	mass density, 303.15 K [kg/m3]	mass density, 308.15 K [kg/m3]	mass density, 313.15 K [kg/m3]	viscosity, 293.15 K [mPa·s]	viscosity, 298.15 K [mPa·s]	viscosity, 303.15 K [mPa·s]	viscosity, 308.15 K [mPa·s]	viscosity, 313.15 K [mPa·s]
x1 = 0.0995	858.45	854.53	850.59	846.63	842.66	2.5	2.251	2.036	1.846	1.682
x1 = 0.1997	910.07	906.36	902.64	898.9	895.16	4.379	3.895	3.486	3.134	2.827
x1 = 0.2999	951.56	947.99	944.41	940.85	937.28	7.388	6.633	5.868	5.192	4.591
x1 = 0.3998	985.07	981.61	978.16	974.71	971.27	12.29	10.67	9.285	8.205	7.25
x1 = 0.5005	1012.9	1009.57	1006.2	1003.2	999.76	18.53	15.89	13.78	12.04	10.57
x1 = 0.6501	1047.63	1044.37	1041.1	1037.86	1034.62	32.66	27.42	23.15	19.83	17.12
x1 = 0.8003	1075.57	1072.36	1069.17	1066	1062.84	56.97	46.57	38.82	32.55	27.74
x1 = 0.8989	1090.94	1087.76	1084.6	1081.46	1078.34	79.51	65.34	53.93	44.86	37.86
x1 = 1	1104.68	1101.52	1098.38	1095.26	1092.17	111.35	89.95	73.04	60.25	50.12
